Laboratory results from patent publication US20020037864A1, “2'-Propionate clarithromycin dodecyl sulfate and its preparation and pharmaceutical composition containing the same” (priority 2000, published 2002).
Converted amounts (≈) assume the structure as drawn. Where a name gives a salt, the structure may show the parent alone.

What was measured:
mice and rat = conditions: orally administrated to mice and rat; cited from earlier work
[1] = system: Streptococcus herbarum, Streptococcus haemolyticus, Staphylococcus aureus, Enterococcus faecalis, Staphylococcus epidermidis, Listeria monocytogenes, and ATCC …; test: Antibacterial activity in vitro comparison assay, agar dilution method (NCCLS); assay type: cell-based; conditions: for MIC50 / MIC90: agar dilution, panel of test strains
Experimental: The primary antibacterial activity in vitro comparison assay between compound (I) (named CES hereafter) and clarithromycin are performed by No. 1 Hospital of Zhejiang Medical University. The agar dilution method, according to the method recognized by NCCLS (“National clinical analysis criterion protocol” (2nd edition), Ye Yingwu and Wang Yusan ed., p562, Southeast University Press), is taken in the following pharmaceutical sensitivity tests against Streptococcus herbarum, Streptococcus haemolyticus, Staphylococcus aureus, Enterococcus faecalis, Staphylococcus epidermidis, Listeria monocytogenes, and ATCC 25923.

mice = test: Maximal tolerance test; assay type: in vivo
Experimental: Acute toxicity animal trial to compound (I) of the present invention is carried out by using 20 KM mice (10 males) weighted 18-22 g. […] Subsequently, the maximal tolerance dose to mice is greater than 8 g/kg as maximal tolerance test determined. […] The mice restored gradually 3 days after administration of compound (I).

[2] = Solubility (physical & chemical property); assay type: physicochemical
[3] = pH value of aqueous mixture (Chinese Pharmacopoeia 2000, Annex VI H); assay type: physicochemical; conditions: 0.4 g added into 10 ml water
Experimental: The pH value of compound (I) of present invention is 5-7 as pH value analyzer (Model PHS-3C, Shanghai leici equipment factory) determined according to the method described in ANNEX VIH (on the measurement of pH value) to Chinese Pharmacopoeia (2000 edition), wherein compound (I) of present invention 0.4 g is added into 10 ml water and stirring extensively.

[4] = Acute toxicity animal trial, oral administration; assay type: in vivo; conditions: both sexes, mouse, in vivo, po; orally administrated to KM mice
KM mice = test: Acute toxicity animal trial, oral administration; assay type: in vivo; conditions: mice after administration

Structure (SMILES): CC[C@H]1OC(=O)[C@H](C)[C@@H](O[C@H]2C[C@@](C)(OC)[C@@H](O)[C@H](C)O2)[C@H](C)[C@@H](O[C@@H]2O[C@H](C)C[C@H](N(C)C)[C@H]2O)[C@](C)(OC)C[C@@H](C)C(=O)[C@H](C)[C@@H](O)[C@]1(C)O [clarithromycin]
- LD50 (mice and rat): 2700 to 3500 mg/kg
- MIC50 [1]: 0.25 µg/mL (≈ 0.334 µM)
- MIC90 [1]: ≧128 μg/ml

Structure (SMILES): CCC(=O)OC1C(O[C@@H]2C(C)[C@H](OC3CC(C)(OC)C(O)C(C)O3)[C@@H](C)C(=O)O[C@H](CC)[C@@](C)(O)[C@H](O)C(C)C(=O)[C@H](C)C[C@@]2(C)OC)OC(C)CC1N(C)C (some centres unmarked) [compound (I), 2′-propionate clarithromycin dodecyl sulfate]
- maximal tolerance dose (mice): greater than 8 g/kg
- solubility in acetone, ethanol, methanol and chloroform [2]: freely soluble
- solubility in water [2]: almost insoluble
- pH value [3]: 5-7
- MIC50 [1]: 0.25 µg/mL
- MIC90 [1]: ≧128 μg/ml
- antibacterial activity relative to clarithromycin ([1]; in vitro comparison): comparable to that of clarithromycin
- LD50 [4]: > 7500 mg/kg
- death (KM mice): no death was observed
- signs after administration (KM mice): furriery flab, drowsiness, spiritless and reduced movement
- time to gradual restoration (KM mice): 3 days
